Data on 18 compounds can be found in patent US20120157453A1, “RAF INHIBITOR COMPOUNDS AND METHODS OF USE THEREOF” (GENENTECH, INC., priority 2009, published 2012).

Like-named read-outs stand apart in the source and are kept apart here.

In experiment [1] the target is T1, V600E full-length B-Raf (Homo sapiens, UniProt P15056, V600E).
T1 construct: 1 μM FSBA-MEK and 20 nM V600E full-length B-Raf; made in house; host or cells: Sf9 insect cells (baculovirus)
The experiment in a line: B-Raf IC50 assay (incorporation of 33P phosphate into FSBA-modified MEK). It counts as biochemical. From the text: Determining the activity of Raf in the sample is possible by a number of direct and indirect detection methods (US 2004/0082014). Activity of human recombinant B-Raf protein may be assessed in vitro by assay of the incorporation of radio labeled phosphate to recombinant MAP kinase (MEK), a known physiologic substrate of B-Raf, according to US 2004/0127496 and WO 03/022840. The activity/inhibition of V600E full-length B-Raf was estimated by measuring the incorporation of radio labeled phosphate from [γ-^33P]ATP into FSBA-modified wild-type MEK (see Example A).
Activity of human recombinant B-Raf protein may be assessed in vitro by assay of the incorporation of radio labeled phosphate to recombinant MAP kinase (MEK), a known physiologic substrate of B-Raf, according to US 2004/0127496 and WO 03/022840. Catalytically active human recombinant B-Raf protein is obtained by purification from sf9 insect cells infected with a human B-Raf recombinant baculovirus expression vector.
The activity/inhibition of V600E full-length B-Raf was estimated by measuring the incorporation of radio labeled phosphate from [γ-^33P]ATP into FSBA-modified wild-type MEK. The 30-μL assay mixtures contained 25 mM Na Pipes, pH 7.2, 100 mM KCl, 10 mM MgCl2, 5 mM β-glycerophosphate, 100 μM Na Vanadate, 4 μM ATP, 500 nCi [γ-^33P]ATP, 1 μM FSBA-MEK and 20 nM V600E full-length B-Raf. Incubations were carried out at 22° C. in a Costar 3365 plate (Corning). Prior to the assay, the B-Raf and FSBA-MEK were preincubated together in assay buffer at 1.5× (20 μL of 30 nM and 1.5 μM, respectively) for 15 minutes, and the assay was initiated by the addition of 10 μL of 10 μM ATP. Following the 60-minute incubation, the assay mixtures were quenched by the addition of 100 μL of 25% TCA, the plate was mixed on a rotary shaker for 1 minute, and the product was captured on a Perkin-Elmer GF/B filter plate using a Tomtec Mach III Harvester. After sealing the bottom of the plate, 35 μL of Bio-Safe II (Research Products International) scintillation cocktail were added to each well and the plate was top-sealed and counted in a Topcount NXT (Packard).

Experiment [2] relates to basal ERK1/2 phosphorylation in Malme-3M cells. Description: Cellular ERK 1/2 phosphorylation assay. The format is cell-based. The settings on record: Homo sapiens, 1 h, pERK normalized to total ERK. The procedure:
Inhibition of basal ERK1/2 phosphorylation was determined by the following in vitro […], which comprises incubating cells with a compound of Formula II for 1 hour and quantifying the fluorescent pERK signal on fixed cells and normalizing to total ERK signal.
Materials and Methods: Malme-3M cells were obtained from ATCC and grown in RPMI-1640 supplemented with 10% fetal bovine serum. Cells were plated in 96-well plates at 24,000 cells/well and allowed to attach for 16-20 hours at 37° C., 5% CO2. The media was removed, and DMSO-diluted compounds were added in RPMI-1640 at a final concentration of 1% DMSO. The cells were incubated with the compounds for 1 hour at 37° C., 5% CO2. The cells were washed with PBS and fixed in 3.7% formaldehyde in PBS for 15 minutes. This was followed by washing in PBS/0.05% Tween20 and permeabilizing in −20° C. 100% MeOH for 15 minutes. Cells were washed in PBS/0.05% Tween20 then blocked in Odyssey blocking buffer (LI-COR Biosciences) for 1 hour. Antibodies to phosphorylated ERK (1:400, Cell Signaling #9106, monoclonal) and total ERK (1:400, Santa Cruz Biotechnology #sc-94, polyclonal) were added to the cells and incubated 16-20 hours at 4° C. After washing with PBS/0.05% Tween20, the cells were incubated with fluorescently-labeled secondary antibodies (1:1000 goat anti-rabbit IgG-IRDye800, Rockland and 1:500 goat anti-mouse IgG-Alexa Fluor 680, Molecular Probes) for an additional hour. Cells were then washed and analyzed for fluorescence at both wavelengths using the Odyssey Infrared Imaging System (LI-COR Biosciences). Phosphorylated ERK signal was normalized to total ERK signal.

The mark [3] stands for this setting: B-Raf V600E, bound less than 1 μM, read-out: IC50.
Where [4] appears, read: Example A assay, 4 μM ATP, 20 nM enzyme, 60-minute incubation, read-out: BRAF V600E IC50.

T1 sequence (P15056 whole entry V600E): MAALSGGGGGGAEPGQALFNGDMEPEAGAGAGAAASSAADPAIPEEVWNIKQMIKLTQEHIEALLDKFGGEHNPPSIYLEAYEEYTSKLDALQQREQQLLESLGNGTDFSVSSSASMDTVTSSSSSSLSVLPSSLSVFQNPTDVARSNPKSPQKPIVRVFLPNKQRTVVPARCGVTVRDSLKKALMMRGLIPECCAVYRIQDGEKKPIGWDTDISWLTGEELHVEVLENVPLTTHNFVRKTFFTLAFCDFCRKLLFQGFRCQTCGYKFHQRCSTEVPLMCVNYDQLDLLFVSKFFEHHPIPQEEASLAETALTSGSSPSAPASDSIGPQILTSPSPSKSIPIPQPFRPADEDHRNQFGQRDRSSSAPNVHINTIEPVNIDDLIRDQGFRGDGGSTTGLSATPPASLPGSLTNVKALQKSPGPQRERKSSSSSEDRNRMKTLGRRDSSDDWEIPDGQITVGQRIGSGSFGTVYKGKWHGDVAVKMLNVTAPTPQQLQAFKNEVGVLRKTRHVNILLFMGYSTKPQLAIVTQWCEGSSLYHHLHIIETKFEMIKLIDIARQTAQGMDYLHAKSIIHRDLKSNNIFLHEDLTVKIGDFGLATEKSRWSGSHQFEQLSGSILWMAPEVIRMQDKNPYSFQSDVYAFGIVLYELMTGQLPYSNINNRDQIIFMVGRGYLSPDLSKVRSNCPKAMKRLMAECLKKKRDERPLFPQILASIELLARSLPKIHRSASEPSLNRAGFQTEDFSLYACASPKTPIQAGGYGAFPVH

With `CCCS(=O)(=O)Nc1ccc(F)c(NC(=O)N(C)c2ncnc3[nH]cnc23)c1F` [Example 1, Propane-1-sulfonic acid {2,4-difluoro-3-[3-methyl-3-(9H-purin-6-yl)-ureido]-phenyl}-amide], the IC50 in experiment [1] (setting [3]) was under 1000 nM; in experiment [1] (setting [4]), 23.9 nM; in experiment [2] (bound less than 500 nM), under 500 nM; in experiment [2] (bound less than 1 μM) it was under 1000 nM.
In the case of `CCCS(=O)(=O)Nc1ccc(F)c(NC(=O)Nc2ncnc3[nH]nc(OC)c23)c1Cl` [Example 2, Propane-1-sulfonic acid {2-chloro-4-fluoro-3-[3-(3-methoxy-1H-pyrazolo[3,4-d]pyrimidin-4-yl)-ureido]-phenyl}-amide], the IC50 in experiment [1] (setting [3]) is under 1000 nM; in experiment [1] (setting [4]), 1.3 nM; in experiment [2] (bound less than 500 nM) it was under 500 nM; in experiment [2] (bound less than 1 μM), under 1000 nM.
Turning to `CCS(=O)(=O)Nc1ccc(F)c(NC(=O)Nc2ncnc3[nH]nc(OC)c23)c1F` [Example 3, Ethanesulfonic acid {2,4-difluoro-3-[3-(3-methoxy-1H-pyrazolo[3,4-d]pyrimidin-4-yl)-ureido]-phenyl}-amide], the IC50 in experiment [1] (setting [3]) was under 1000 nM; in experiment [1] (setting [4]) it was 3.4 nM; in experiment [2], 13.5 nM; in experiment [2] (bound less than 500 nM), under 500 nM; in experiment [2] (bound less than 1 μM) it was under 1000 nM.
Take `CCS(=O)(=O)Nc1ccc(Cl)c(NC(=O)Nc2ncnc3[nH]nc(OC)c23)c1F` [Example 4, Ethanesulfonic acid {4-chloro-2-fluoro-3-[3-(3-methoxy-1H-pyrazolo[3,4-d]pyrimidin-4-yl)-ureido]-phenyl}-amide]: the IC50 in experiment [1] (setting [3]) was under 1000 nM; in experiment [1] (setting [4]), 1.9 nM; in experiment [2] (bound less than 500 nM), under 500 nM; in experiment [2] (bound less than 1 μM), under 1000 nM.
On to `CCS(=O)(=O)Nc1ccc(F)c(NC(=O)Nc2ncnc3[nH]nc(OC)c23)c1Cl` [Example 5, Ethanesulfonic acid {2-chloro-4-fluoro-3-[3-(3-methoxy-1H-pyrazolo[3,4-d]pyrimidin-4-yl)-ureido]-phenyl}-amide], for which the IC50 in experiment [1] (setting [3]) was under 1000 nM; in experiment [1] (setting [4]) it was 3.9 nM; in experiment [2], 47.9 nM; in experiment [2] (bound less than 500 nM) it was under 500 nM; in experiment [2] (bound less than 1 μM), under 1000 nM.
`CCCS(=O)(=O)Nc1ccc(F)c(NC(=O)N(C)c2ncnc3[nH]ccc23)c1F` [Example 6, Propane-1-sulfonic acid {2,4-difluoro-3-[3-methyl-3-(7H-pyrrolo[2,3-d]pyrimidin-4-yl)-ureido]-phenyl}-amide]: the IC50 in experiment [1] (setting [3]) is under 1000 nM; in experiment [1] (setting [4]), 57 nM.
For `CCCS(=O)(=O)Nc1ccc(F)c(NC(=O)Nc2ncnc3[nH]nc(I)c23)c1F` [Example 7, Propane-1-sulfonic acid {2,4-difluoro-3-[3-(3-iodo-1H-pyrazolo[3,4-d]pyrimidin-4-yl)-ureido]-phenyl}-amide], the IC50 was under 1000 nM in experiment [1] (setting [3]), 3.8 nM in experiment [1] (setting [4]) and under 1000 nM in experiment [2] (bound less than 1 μM).
As for `CCCS(=O)(=O)Nc1ccc(F)c(NC(=O)Nc2ncnc3[nH]nc(OC)c23)c1OC` [Example 8, Propane-1-sulfonic acid {4-fluoro-2-methoxy-3-[3-(3-methoxy-1H-pyrazolo[3,4-d]pyrimidin-4-yl)-ureido]-phenyl}-amide], the half-inhibitory concentration (IC50) in experiment [1] (setting [3]) is under 1000 nM; in experiment [1] (setting [4]), 192 nM; in experiment [2] (bound less than 1 μM), under 1000 nM.
Consider `CCCS(=O)(=O)Nc1ccc(F)c(NC(=O)Nc2ncnc3[nH]nc(OCC)c23)c1F` [Example 9, N-(3-(3-(3-Ethoxy-1H-pyrazolo[3,4-d]pyrimidin-4-yl)ureido)-2,4-difluorophenyl)propane-1-sulfonamide], for which the IC50 in experiment [1] (setting [3]) is under 1000 nM; in experiment [1] (setting [4]), 0.9 nM; in experiment [2] (bound less than 500 nM), under 500 nM; in experiment [2] (bound less than 1 μM) it was under 1000 nM.
As to `CCCS(=O)(=O)Nc1ccc(F)c(NC(=O)Nc2ncnc3[nH]nc(OC)c23)c1F` [Example 10, Propane-1-sulfonic acid {2,4-difluoro-3-[3-(3-methoxy-1H-pyrazolo[3,4-d]pyrimidin-4-yl)-ureido]-phenyl}-amide], the IC50 was under 1000 nM in experiment [1] (setting [3]), 1.4 nM in experiment [1] (setting [4]), under 500 nM in experiment [2] (bound less than 500 nM) and under 1000 nM in experiment [2] (bound less than 1 μM).
As for `CCCS(=O)(=O)Nc1ccc(F)c(NC(=O)Nc2ncnc3[nH]ncc23)c1F` [Example 11, Propane-1-sulfonic acid {2,4-difluoro-3-[3-(1H-pyrazolo[3,4-d]pyrimidin-4-yl)-ureido]-phenyl}-amide], the IC50 in experiment [1] was 5.5 nM; in experiment [1] (setting [3]), under 1000 nM; in experiment [2] (bound less than 500 nM), under 500 nM; in experiment [2] (bound less than 1 μM), under 1000 nM.
On to `CCCS(=O)(=O)Nc1ccc(F)c(NC(=O)Nc2ncnc3[nH]ccc23)c1F` [Example 12, Propane-1-sulfonic acid {2,4-difluoro-3-[3-(7H-pyrrolo[2,3-d]pyrimidin-4-yl)-ureido]-phenyl}-amide], for which the IC50 in experiment [1] (setting [3]) was under 1000 nM; in experiment [1] (setting [4]), 56.2 nM; in experiment [2] (bound less than 500 nM) it was under 500 nM; in experiment [2] (bound less than 1 μM), under 1000 nM.
Consider `CCCS(=O)(=O)Nc1ccc(F)c(NC(=O)Nc2ncnc3[nH]cnc23)c1F` [Example 13, Propane-1-sulfonic acid {2,4-difluoro-3-[3-(9H-purin-6-yl)-ureido]-phenyl}-amide], for which the IC50 in experiment [1] (setting [3]) is under 1000 nM; in experiment [1] (setting [4]), 4.7 nM; in experiment [2] (bound less than 500 nM), under 500 nM; in experiment [2] (bound less than 1 μM) it was under 1000 nM.
For `CCCS(=O)(=O)Nc1ccc(F)c(NC(=O)Nc2ncnc3[nH]nnc23)c1F` [Example 14, Propane-1-sulfonic acid {2,4-difluoro-3-[3-(3H-[1,2,3]triazolo[4,5-d]pyrimidin-7-yl)-ureido]-phenyl}-amide], the IC50 in experiment [1] (setting [4]) is 1960 nM.
Regarding `CCCS(=O)(=O)Nc1ccc(F)c(NC(=O)Nc2ncnc3[nH]nc(OCCCO)c23)c1F` [Example 15, Propane-1-sulfonic acid {2,4-difluoro-3-{3-[3-(3-hydroxy-propoxy)-1H-pyrazolo[3,4-d]pyrimidin-4-yl]-ureido}-phenyl)-amide], the IC50 is under 1000 nM in experiment [1] (setting [3]) and 428 nM in experiment [1] (setting [4]).
Take `CCCS(=O)(=O)Nc1ccc(Cl)c(NC(=O)Nc2ncnc3[nH]nc(OC)c23)c1F` [Example 16, Propane-1-sulfonic acid {4-chloro-2-fluoro-3-[3-(3-methoxy-1H-pyrazolo[3,4-d]pyrimidin-4-yl)-ureido]-phenyl}-amide]: the IC50 in experiment [1] (setting [3]) is under 1000 nM; in experiment [1] (setting [4]), 0.6 nM; in experiment [2] (bound less than 500 nM), under 500 nM; in experiment [2] (bound less than 1 μM) it was under 1000 nM.
`CCCS(=O)(=O)Nc1ccc(F)c(NC(=O)Nc2ncnc3oc(C)c(C)c23)c1F` [Example 18, Propane-1-sulfonic acid {3-[3-(5,6-dimethyl-furo[2,3-d]pyrimidin-4-yl)-ureido]-2,4-difluoro-phenyl}-amide]: the IC50 was under 1000 nM in experiment [1] (setting [3]) and 431 nM in experiment [1] (setting [4]).
Consider `CCCS(=O)(=O)Nc1ccc(F)c(NC(=O)Nc2ncnc3[nH]c(=S)[nH]c23)c1F` [Example 23, Propane-1-sulfonic acid {2,4-difluoro-3-[3-(8-thioxo-8,9-dihydro-7H-purin-6-yl)-ureido]-phenyl}-amide], for which the IC50 is under 1000 nM in experiment [1] (setting [3]) and 29.2 nM in experiment [1] (setting [4]).

As a reminder, the IC50 is the concentration that gives 50% inhibition.
